These results are taken from US20120177701A1, “COMPOSITIONS COMPRISING IMMUNOSTIMULATORY NUCLEIC ACIDS AND RELATED METHODS” (priority 2010, published 2012).

The target in one data set is T1, human TLR3 (Homo sapiens, UniProt O15455).
T1 construct: expressed in transfected cells; host or cells: HEK-Blue hTLR3 (HEK293-derived reporter line)
T1 sequence (O15455 24-904): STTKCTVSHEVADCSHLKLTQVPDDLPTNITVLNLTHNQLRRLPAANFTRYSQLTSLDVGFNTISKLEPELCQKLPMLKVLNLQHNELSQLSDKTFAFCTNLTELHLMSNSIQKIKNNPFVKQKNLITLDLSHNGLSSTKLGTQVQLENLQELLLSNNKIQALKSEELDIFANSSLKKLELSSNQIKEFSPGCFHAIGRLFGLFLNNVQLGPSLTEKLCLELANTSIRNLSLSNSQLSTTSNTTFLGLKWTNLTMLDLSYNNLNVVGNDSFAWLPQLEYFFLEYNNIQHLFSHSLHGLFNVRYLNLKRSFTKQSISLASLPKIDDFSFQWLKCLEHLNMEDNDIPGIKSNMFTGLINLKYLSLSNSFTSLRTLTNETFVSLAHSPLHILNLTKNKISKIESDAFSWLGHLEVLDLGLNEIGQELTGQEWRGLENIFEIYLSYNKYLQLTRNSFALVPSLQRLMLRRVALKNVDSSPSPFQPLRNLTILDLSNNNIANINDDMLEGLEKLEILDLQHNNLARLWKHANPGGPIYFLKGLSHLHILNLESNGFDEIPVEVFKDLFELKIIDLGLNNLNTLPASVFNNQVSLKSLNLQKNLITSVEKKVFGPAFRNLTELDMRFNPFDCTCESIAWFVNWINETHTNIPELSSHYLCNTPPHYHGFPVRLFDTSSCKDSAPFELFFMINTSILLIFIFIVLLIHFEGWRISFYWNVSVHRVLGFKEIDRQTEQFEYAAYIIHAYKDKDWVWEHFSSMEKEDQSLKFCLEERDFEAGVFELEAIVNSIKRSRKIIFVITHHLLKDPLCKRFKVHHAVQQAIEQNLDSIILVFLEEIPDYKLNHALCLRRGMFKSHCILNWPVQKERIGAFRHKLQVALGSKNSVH
It is filed as cell-based.

In the next data set the test system is murine splenocytes. The experiment in a line: Immune cell activation (CD69 expression, FACS) in murine splenocytes. Format: cell-based, mouse. As to conditions: 20 hours. As to the method:
In addition, upon removal of the supernatant at 20 hours post-incubation, the mouse cells were stained for the following cell markers: GR1, F4/80, CD11c, CD220, CD3, Ly49b, and CD69, and analyzed by FACS. Different immune cell populations were distinguished as follows: macrophages (F4/80^+/GR1^−); plasmacytoid dendritic cells or pDC (CD11c^+/CD220^+); B cells (CD220^+/CD11c^−); NK (CD3^−/Ly49b^+); myeloid DC or mDC ([…]); granulocytes (eosinophils) (GR1^+high/F4/80^−); T cells (CD3^+); and NKT cells (CD3^+/Ly49b^+). All immune cell populations were quantified by the expression of CD69 (am early activation marker).

Data set [1] relates to primary human lymphocytes. It is filed as cell-based. As to conditions: 20 hours.
In the next data set the target is T2, human TLR9 (Homo sapiens, UniProt Q9NR96).
T2 construct: expressed in transfected cells; host or cells: HEK-Blue hTLR9 (HEK293-derived reporter line)
T2 sequence (Q9NR96 26-1032): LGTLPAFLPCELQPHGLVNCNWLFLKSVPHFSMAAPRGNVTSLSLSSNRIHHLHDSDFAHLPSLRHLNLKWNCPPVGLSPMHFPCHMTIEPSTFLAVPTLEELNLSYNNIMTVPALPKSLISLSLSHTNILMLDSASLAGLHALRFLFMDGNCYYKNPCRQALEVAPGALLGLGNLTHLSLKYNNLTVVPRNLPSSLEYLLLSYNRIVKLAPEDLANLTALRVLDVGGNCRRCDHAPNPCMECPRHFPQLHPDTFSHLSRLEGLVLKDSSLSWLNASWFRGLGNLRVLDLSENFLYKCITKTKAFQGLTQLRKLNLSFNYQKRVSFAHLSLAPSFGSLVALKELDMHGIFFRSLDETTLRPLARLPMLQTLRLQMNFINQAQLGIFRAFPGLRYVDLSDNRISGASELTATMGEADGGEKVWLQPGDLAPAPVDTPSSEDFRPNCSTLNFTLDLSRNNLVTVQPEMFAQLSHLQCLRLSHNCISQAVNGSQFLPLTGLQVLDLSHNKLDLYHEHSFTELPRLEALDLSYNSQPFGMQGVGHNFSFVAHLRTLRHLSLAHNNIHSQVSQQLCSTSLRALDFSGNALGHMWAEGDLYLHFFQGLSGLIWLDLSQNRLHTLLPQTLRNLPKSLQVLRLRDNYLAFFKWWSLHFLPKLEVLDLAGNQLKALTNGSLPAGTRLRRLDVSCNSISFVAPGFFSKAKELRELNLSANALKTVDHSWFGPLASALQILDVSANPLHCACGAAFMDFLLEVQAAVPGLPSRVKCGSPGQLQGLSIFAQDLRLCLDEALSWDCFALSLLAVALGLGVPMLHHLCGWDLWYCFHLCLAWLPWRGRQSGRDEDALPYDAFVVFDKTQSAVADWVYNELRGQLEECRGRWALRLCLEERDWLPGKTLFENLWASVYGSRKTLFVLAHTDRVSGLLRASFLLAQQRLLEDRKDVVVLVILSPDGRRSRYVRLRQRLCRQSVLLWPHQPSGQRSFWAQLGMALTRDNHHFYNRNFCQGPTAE
It is filed as cell-based.

The next data set has as its system J774 murine macrophages. The experiment in a line: TNF-α induction in mouse macrophage cell line J774. Format: cell-based. As to the method: Induction of TNF-α by macrophages is a hallmark of human TLR8 activation (Forsbach et al., 2008, J. Immunol., 180:3729-38; Ghosh et al., 2007, Int. Immunopharmacol., 7:1111-21; Gorden et al., 2005, J. Immunol., 174:1259-68). […] In the following experiment mouse macrophage cell line, J774, has been transfected by test ribonucleotides as described above for HEK-Blue™ hTLR8 cells (with the exception that 2-10×10^4 cells/well were used) and TNF-α was measured in culture supernatants at 16-20 hours after transfection.

The mark [2] stands for this setting: 200 nM, compared with R848 1 μM.

Regarding “5′-GAGAUGUUAUUUUGUUUUUAAUAUUUC-3′ (phosphorothioate backbone, further chemistry not given here) [SL-0001, phosphorothioated 27-ribonucleotide from the 3′-terminus of Chikungunya virus strain TSI-GSD-218, bases 12010-12036]”, the “activation of SEAP expression” value with human TLR3 is reported as “No activation of SEAP expression”. Also, the “activation of immune cell populations (CD69 expression)” value in the data set on murine splenocytes (200 nM DOTAP-complexed) is “induced activation in most of the tested immune cell populations”. Also, in the data set with murine splenocytes (200 nM DOTAP-complexed, R848 1 μM), the “immune cell activation compared with R848 and control oligonucleotide” value was “at least comparable to that generated by treatment with 1 μM of R848, and usually exceeded the effects exhibited by the control oligonucleotide R-0006”. Moreover, in the data set with murine splenocytes (setting [2]), the “NKT cell activation (CD69)” value is given as “exceeded the activation observed for R848”, the “T cell activation (CD69)” value is given as “exceeded the activation observed for R848” and the “granulocyte activation (CD69)” value was “exceeded the activation observed for R848”. For the same substance, the “macrophage activation (CD69)” value in the data set with murine splenocytes (200 nM, compared with R-0006) is given as “especially higher than the activation observed for R-0006”. Further, in data set [1], the “11-12(p40) induction” value is recorded as “significant levels”, the IFNγ induction entry is “significant levels”, the “IL-4 induction (Th2-type cytokine)” value was “insignificant” and the “IL-5 induction (Th2-type cytokine)” value was “insignificant”. Also, in data set [1], the IL-6 induction result is “significant levels”, the IL-10 induction result is “significant levels”, the IL-23 induction result is “significant levels” and the TNFα induction entry was “significant levels”. The “activation of SEAP expression” value with human TLR9 is listed as “No activation of SEAP expression”. Also, in the data set with J774 murine macrophages, the “TNF-α induction, described in words” value is given as “strongly induced TNF-α expression, to the level seen when R-0006 was used”.
